Assay results published in US20240343761A1, “APELINERGIC MACROCYCLES AND USES THEREOF” (priority 2021, published 2024).
Numbered stars: 1 amine (or outer) side, 2 acyl side, 3 side chain; on linkers, the order of the positions; unused ones are H or OH. Bridge positions count the residues as written; N and C are the ends. Square brackets hold non-standard residues; d marks the D form. Peptide text beside a SMILES is read from it. * marks the point of attachment. X3 = O=C([C@H](CCCCNCCC=[*:3])N[*:1])[*:2]; X9 = O=C([C@H](CCCNCCC=[*:3])N[*:1])[*:2]; X2 = Cc1ccc2nc(-c3ccc(N*)cc3)sc2c1; AllylGly = C=CC[C@H](N)C(=O)O; pGlu = O=C1CC[C@@H](C(=O)O)N1; Nle = CCCC[C@H](N)C(=O)O; Ava = NCCCCC(=O)O; Bn = c1ccc(C*)cc1

Each molecule was assayed against T1, human APJ (hAPJ) (Homo sapiens, UniProt P35414) (assay: Competitive radioligand binding ([125I][Nle75,Tyr77][Pyr1]-Ape13) on membranes of HEK293 cells stably expressing human APJ). Conditions: Ki binding.
T1 construct: expressed in transfected cells; cell membranes
T1 sequence (P35414 1-380): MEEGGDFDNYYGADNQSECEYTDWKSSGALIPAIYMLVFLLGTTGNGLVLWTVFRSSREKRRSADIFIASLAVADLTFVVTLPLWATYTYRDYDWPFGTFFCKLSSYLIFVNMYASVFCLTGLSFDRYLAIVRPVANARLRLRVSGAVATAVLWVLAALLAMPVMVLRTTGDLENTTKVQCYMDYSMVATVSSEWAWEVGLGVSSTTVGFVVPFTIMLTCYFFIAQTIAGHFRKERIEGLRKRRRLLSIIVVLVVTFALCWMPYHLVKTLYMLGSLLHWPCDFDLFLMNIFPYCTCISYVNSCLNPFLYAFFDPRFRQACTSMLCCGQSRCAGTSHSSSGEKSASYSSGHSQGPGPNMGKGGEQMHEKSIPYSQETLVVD
Procedure: HEK293 cells stably expressing YFP-tagged human APJ were cultured in DMEM medium supplemented with 10% FBS, at 37° C. under a humid atmosphere maintaining 5% CO2. Antibiotic G418 (400 μg/mL) was added to maintain a selection pressure for APJ-expressing cells while penicillin/streptomycin (0.1%) were used to prevent bacterial contamination.
Binding experiments were performed on cell membranes of HEK293 stably expressing the YFP-tagged human APJ receptor. Cells were frozen at −80° C. for storage and quickly thawed right before the experiments (1 min at 37° C.). […] The precipitate (cell membranes) was suspended in binding buffer (50 mM Tris-HCl, 0.2% BSA, pH 7.4). Binding assays were run in 96-well plates. […] (820 Ci/mmol)^3 and test ligand with a range of concentrations from 10^−1 to 10^−11 M in a total volume of 200 μL for 1 h at room temperature.
The incubation mixtures were filtered through a glass fiber filter (Millipore, pre-absorbed of PEI 0.5% for 2 h at 4° C.) to remove unbound ligands, and the filter membranes were washed three times with 170 μL cold binding buffer (4° C.). The γ emission was measured using a 1470 Wizard γ-counter from PerkinElmer (Waltham, USA) (80% efficiency).
With `N=C(N)NCCC[C@H](N)C(=O)N[C@H]1CCCCNCCC=CC[C@@H](C(=O)N[C@H](Cc2ccc(OCc3ccccc3)cc2)C(=O)O)NC(=O)[C@@H]2CCCN2C1=O` [Compound 57, NH2-R-c[K(N-butenyl)-P-X]-(D-Tyr(Obn))] (H-R[X3]P[AllylGly][dY](Bn)-OH; staple 2-4) the Ki was > 10 µM. `CCCC[C@H](NC(=O)[C@@H]1CCCN1C(=O)CNC(=O)[C@H](CCCCN)NC(=O)[C@H](Cc1c[nH]cn1)NC(=O)[C@H](CO)NC(=O)[C@@H]1CC=CC[C@H](NC(=O)[C@@H]2CCC(=O)N2)C(=O)N2CCC[C@H]2C(=O)N[C@@H](C)C(=O)N1)C(=O)N1CCC[C@H]1C(=O)N[C@@H](Cc1ccccc1)C(=O)O` [Compound 5, Pyr-c[X-P-A-X]c-S-H-K-G-P-Nle-P-F] ([pGlu][AllylGly]PA[AllylGly]SHKGP[Nle]PF-OH; staple 2-5) was tested, and the Ki was > 10 µM. For `CCCC[C@H](NC(=O)[C@@H]1CCCN1C(=O)CCCCNC(=O)[C@@H]1CC=CC[C@H](N)C(=O)N[C@@H](CCCNC(=N)N)C(=O)N[C@@H](CC(C)C)C(=O)N[C@@H](CO)C(=O)N1)C(=O)O` [Compound 32, NH2-c[X-R-L-S-X]c-5Ava-P-Nle] (H-[AllylGly]RLS[AllylGly][Ava]P[Nle]-OH; staple 1-5), the Ki was > 10 µM. `CCCC[C@H](NC(=O)[C@@H]1CCCN1C(=O)CNC(=O)[C@H](CCCCN)NC(=O)[C@@H]1CC=CC[C@H](NC(=O)[C@@H]2CCC(=O)N2)C(=O)N2CCC[C@H]2C(=O)N[C@@H](C)C(=O)N[C@@H](CC(C)C)C(=O)N[C@@H](CO)C(=O)N1)C(=O)N1CCC[C@H]1C(=O)N[C@@H](Cc1ccccc1)C(=O)O` [Compound 7, Pyr-c[X-P-A-L-S-X]c-K-G-P-Nle-P-F] ([pGlu][AllylGly]PALS[AllylGly]KGP[Nle]PF-OH; staple 2-7) was tested, and the Ki was > 10 µM. With `CCCC[C@H](NC(=O)[C@@H]1CCCN1C(=O)[C@@H]1CCCCNC(=O)CC[C@H](NC(=O)[C@H](CC(C)C)NC(=O)[C@H](CCCNC(=N)N)NC(=O)[C@@H]2CCCN2C(=O)[C@H](CCCNC(=N)N)NC(=O)[C@H](CCC(N)=O)NC(=O)[C@H](CCCNC(=N)N)NC(=O)[C@H](CCCNC(=N)N)NC(=O)[C@H](Cc2ccccc2)NC(=O)[C@H](CCCCN)NC(C)=O)C(=O)N[C@@H](Cc2c[nH]cn2)C(=O)N[C@@H](CCCCN)C(=O)N1)C(=O)N1CCC[C@H]1C(=O)N[C@@H](CC(=O)Nc1ccc(-c2nc3ccc(C)cc3s2)cc1)C(=O)O` [Compound 68, Ac-K-F-R-R-Q-R-P-R-L-[E-H-K-K]-P-Nle-P-B2] (Ac-KFRRQRPRLEHKKP[Nle]PD(X2)-OH; lactam 10-13) the Ki was 0.004 ± 0.001 µM. For `CCCC[C@H](NC(=O)[C@@H]1CCCN1C(=O)CNC(=O)[C@H](CCCCN)NC(=O)[C@H](Cc1c[nH]cn1)NC(=O)[C@@H]1CC=CC[C@H](NC(=O)[C@@H]2CCC(=O)N2)C(=O)N2CCC[C@H]2C(=O)N[C@@H](C)C(=O)N[C@@H](CC(C)C)C(=O)N1)C(=O)N1CCC[C@H]1C(=O)N[C@@H](Cc1ccccc1)C(=O)O` [Compound 6, Pyr-c[X-P-A-L-X]c-H-K-G-P-Nle-P-F], the Ki was > 10 µM. With `CC(C)C[C@@H]1NC(=O)[C@H](CCCNC(=N)N)NC(=O)[C@@H](N)CC=CC[C@@H](C(=O)N[C@@H](CCCCN)C(=O)O)NC(=O)[C@H](CO)NC1=O` [Compound 30, NH2-c[X-R-L-S-X]c-K] (H-[AllylGly]RLS[AllylGly]K-OH; staple 1-5) the Ki was > 10 µM. In the case of `N=C(N)NCCC[C@@H]1NC(=O)[C@@H](N)CC=CCCNCCC[C@@H](C(=O)N2CCC[C@H]2C(=O)N[C@@H](Cc2ccc(OCc3ccccc3)cc2)C(=O)O)NC1=O` [Compound 51, NH2-c[X-R-Orn(N-butenyl)]-P-Tyr(Obn)] (H-[AllylGly]R[X9]PY(Bn)-OH; staple 1-3), the Ki is reported as > 10 µM.
